Patent US20080199858A1, “Method for Detecting Estrogen-Like Chemicals by Plant” (priority 2004, published 2008)

Target: T1, chimeric estrogen receptor containing hERαLBD and LexA DBD (Homo sapiens, UniProt P03372)
T1 construct: expressed in transfected cells; host or cells: transgenic Arabidopsis thaliana (Columbia), Agrobacterium C58-mediated transformation, CaMV 35S promoter
Format: in vivo
Conditions: T2 seeds on MS agar medium, grown for a week; FIG. 6
Procedure: Seeds of T3 were sown on a MS agar medium containing 17β-estradiol (WAKO Pure Chemical Inds.). The expression of GUS gene was examined by GUS activity staining method and GUS activity assay method by the use of a transformed plant grown for a week.
The induction of reporter gene expression by estrogen in transformed Arabidopsis thaliana was performed by the following procedures. […] After that the transformed Arabidopsis thaliana was sprouted and grown in a bright place at 22° C. for specified days for the continuous exposure to estrogen.
The Gus activity assay method was performed in the following way. […] Twenty plants treated with estrogen were frozen in liquid nitrogen and were crushed into powder by a homogenizer. Then, the extraction buffer (50 mM NaH2PO4, 10 mM EDTA, 0.1% Triton-X-100, 0.1% N-sodium lauroyl sarcosinate, 10 mM β-mercaptoethanol) was added and soluble protein was extracted. 4-methylumbelliferyl-β-D-glucronide (4-MUG) was used for a substrate of GUS activity assay. The extracted protein solution was added with extraction buffer containing final 1 mM 4-MUG and was reacted at 37° C. for 1 hr. […] Also, protein concentration in the solution was measured and measured values obtained by fluorescent spectroscopy were standardized by the correction depending on the total protein in the protein solution. […]

T1 sequence (P0A7C2 1-87, change not shown): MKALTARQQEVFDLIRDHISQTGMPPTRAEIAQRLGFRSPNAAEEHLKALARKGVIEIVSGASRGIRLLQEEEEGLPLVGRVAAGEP
T1 sequence (P03372 311-547, change not shown): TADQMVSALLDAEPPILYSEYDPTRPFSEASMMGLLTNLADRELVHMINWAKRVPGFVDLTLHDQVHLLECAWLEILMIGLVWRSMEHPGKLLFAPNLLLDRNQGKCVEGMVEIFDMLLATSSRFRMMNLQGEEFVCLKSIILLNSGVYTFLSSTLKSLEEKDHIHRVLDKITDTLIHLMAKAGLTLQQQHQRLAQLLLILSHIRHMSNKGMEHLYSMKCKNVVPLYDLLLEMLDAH
T1 sequence (Q15596 624-869, change not shown, further chain): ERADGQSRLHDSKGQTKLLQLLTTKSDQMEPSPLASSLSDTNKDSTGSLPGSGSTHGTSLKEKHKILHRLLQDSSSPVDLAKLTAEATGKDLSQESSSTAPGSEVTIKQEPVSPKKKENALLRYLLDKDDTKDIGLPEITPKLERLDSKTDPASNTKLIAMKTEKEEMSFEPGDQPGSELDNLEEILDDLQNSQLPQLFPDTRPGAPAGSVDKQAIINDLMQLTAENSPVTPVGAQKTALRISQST
T1 sequence (P06492 413-490, change not shown, further chain): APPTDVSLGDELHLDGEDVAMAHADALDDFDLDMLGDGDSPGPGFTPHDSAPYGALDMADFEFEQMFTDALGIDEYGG

CC(C)(c1ccc(O)cc1)c1ccc(O)cc1 [BPA, bisphenol A]
concentration from which expression of GUS gene responds / increases: > 100 nM
optimal concentration for the expression of GUS gene: 100 nM
